Key:
Assay in all cases: Cell viability, CellTiterGlo, 72 hours
Type in all cases: cell-based
[1] = tested on: A2058; settings: Homo sapiens, A2058 cells, Skin
Experimental: (§1) In addition to the colorectal cells, 120 cancer cell lines treated with various concentrations of lomitapide were assayed for viability. To analyze cell viability, the cells were incubated with lomitapide at 37° C. for 72 hours in a 5% or 10% CO2 atmosphere and then equilibrated at room temperature for 1 hour, followed by addition of CellTiterGlo reagent (Promega). One hour later, luminescence was measured to calculate cell viability (%). The 120 cell lines were purchased from ATCC (American Type Culture Collection, Virginia, USA).

[2] = tested on: A498; settings: Homo sapiens, A498 cells, Kidney
Experimental: as §1

[3] = tested on: BxPC-3; settings: Homo sapiens, BxPC-3 cells, Pancreas
Experimental: as §1

[4] = tested on: EFO-27; settings: Homo sapiens, EFO-27 cells, Ovary
Experimental: as §1

[5] = tested on: EPLC-272H; settings: Homo sapiens, EPLC-272H cells, Lung
Experimental: as §1

[6] = tested on: H4; settings: H4 cells, Brain
Experimental: as §1

[7] = tested on: HCC 1569; settings: Homo sapiens, HCC1569, HCC 1569 cells, Breast
Experimental: as §1

[8] = tested on: HCC38; settings: Homo sapiens, HCC38 cells, Breast
Experimental: as §1

[9] = tested on: HEC-1-B; settings: Homo sapiens, HEC-1-B cells, Endometrium
Experimental: as §1

[10] = tested on: Hs 746T; settings: Homo sapiens, Hs746T, Hs 746T cells, Stomach
Experimental: as §1

[11] = tested on: Jurkat; settings: Homo sapiens, Jurkat cells, Blood
Experimental: as §1

[12] = tested on: K562; settings: Homo sapiens, K562 cells, Blood
Experimental: as §1

[13] = tested on: KMS-12-BM; settings: Homo sapiens, KMS-12-BM cells, Blood
Experimental: as §1

[14] = tested on: LN229; settings: Homo sapiens, LN-229, LN229 cells, Brain
Experimental: as §1

[15] = tested on: MCF-7; settings: Homo sapiens, MCF7, MCF-7 cells, Breast
Experimental: as §1

[16] = tested on: MDA MB 435; settings: Homo sapiens, MDA MB 435 cells, Skin
Experimental: as §1

[17] = tested on: MEC-1; settings: Homo sapiens, MEC1, MEC-1 cells, Blood
Experimental: as §1

[18] = tested on: MKN-1; settings: Homo sapiens, MKN-1 cells, Stomach
Experimental: as §1

[19] = tested on: MOLM-13; settings: Homo sapiens, MOLM-13 cells, Blood
Experimental: as §1

[20] = tested on: NCI-H1563; settings: Homo sapiens, NCI-H1563 cells, Lung
Experimental: as §1

[21] = tested on: NCI-H1838; settings: Homo sapiens, NCI-H1838 cells, Lung
Experimental: as §1

[22] = tested on: NCI-H2286; settings: Homo sapiens, NCI-H2286 cells, Lung
Experimental: as §1

[23] = tested on: NCI-H441; settings: Homo sapiens, NCI-H441 cells, Lung
Experimental: as §1

[24] = tested on: NCI-N87; settings: Homo sapiens, NCI-N87 cells, Stomach
Experimental: as §1

[25] = tested on: OCI-AML3; settings: Homo sapiens, OCI-AML-3, OCI-AML3 cells, Blood
Experimental: as §1

[26] = tested on: OPM-2; settings: Homo sapiens, OPM-2 cells, Blood
Experimental: as §1

[27] = tested on: OV56; settings: OV56 cells, Ovary
Experimental: as §1

[28] = tested on: OVK18; settings: OVK18 cells, Ovary
Experimental: as §1

[29] = tested on: RERF-LC-MS; settings: RERF-LC-MS cells, Lung
Experimental: as §1

[30] = tested on: RKO; settings: Homo sapiens, RKO cells, Colon
Experimental: as §1

[31] = tested on: SJSA-1; settings: Homo sapiens, SJSA-1 cells, Bone
Experimental: as §1

[32] = tested on: SK-LU-1; settings: Homo sapiens, SK-LU-1 cells, Lung
Experimental: as §1

[33] = tested on: SK-MEL-3; settings: Homo sapiens, SK-MEL3, SK-MEL-3 cells, Skin
Experimental: as §1

[34] = tested on: SK-N-MC; settings: Homo sapiens, SK-N-MC cells, Brain
Experimental: as §1

[35] = tested on: SK-OV3; settings: Homo sapiens, SK-OV-3, SK-OV3 cells, Ovary
Experimental: as §1

[36] = tested on: SNU-1; settings: Homo sapiens, SNU1, SNU-1 cells, Stomach
Experimental: as §1

[37] = tested on: SNU840; settings: SNU-840, SNU840 cells, Ovary
Experimental: as §1

[38] = tested on: Saos-2 EC; settings: Homo sapiens, Saos-2 EC cells, Bone
Experimental: as §1

[39] = tested on: T98G; settings: Homo sapiens, T98G cells, Brain
Experimental: as §1

`O=C(NC1CCN(CCCCC2(C(=O)NCC(F)(F)F)c3ccccc3-c3ccccc32)CC1)c1ccccc1-c1ccc(C(F)(F)F)cc1` [lomitapide, N-(2,2,2-trifluoroethyl)-9-[4-[4-[[[4′-(trifluoromethyl)[1,1′-biphenyl]2-yl]carbonyl]amino]-1-piperidinyl]butyl]-9H-fluoren-9-carboxamide] was tested, and the IC50 [1] was 1.4 µM, the IC50 [2] was 2.9 µM and the IC50 [3] was 5.7 µM. For the same molecule, the IC50 [4] was 4 µM, the IC50 [5] was 3.1 µM and the IC50 [6] was 4.6 µM. The IC50 [7] was 2.9 µM, the IC50 [8] was 6 µM and the IC50 [9] was 6.9 µM. It also gave an IC50 [10] of 2.5 µM, an IC50 [11] of 3 µM and an IC50 [12] of 2.1 µM. For the same molecule, the IC50 [13] was 3.5 µM, the IC50 [14] was 2.7 µM and the IC50 [15] was 2.8 µM. It also gave an IC50 [16] of 3 µM, an IC50 [17] of 3.3 µM and an IC50 [18] of 3.7 µM. It also gave an IC50 [19] of 6.3 µM, an IC50 [20] of 5.3 µM and an IC50 [21] of 4 µM. For the same molecule, the IC50 [22] was 3.4 µM, the IC50 [23] was 3.2 µM and the IC50 [24] was 3.3 µM. It also gave an IC50 [25] of 2.1 µM, an IC50 [26] of 4.4 µM and an IC50 [27] of 4.8 µM. For the same molecule, the IC50 [28] was 3.3 µM, the IC50 [29] was 3.2 µM and the IC50 [30] was 3.3 µM. The IC50 [31] was 3.1 µM, the IC50 [32] was 4.6 µM and the IC50 [33] was 1.6 µM. It also gave an IC50 [34] of 2.4 µM, an IC50 [35] of 3.3 µM and an IC50 [36] of 2.8 µM. For the same molecule, the IC50 [37] was 2.3 µM, the IC50 [38] was 3.6 µM and the IC50 [39] was 3.8 µM.

Reference: patent publication US12582638B2, “Pharmaceutical composition for treating cancer, containing mTOR-signaling inhibitor as active ingredient” (KOREA ADVANCED INSTITUTE OF SCIENCE AND TECHNOLOGY, priority 2020, dated 2026)
